Values of other authors in patent US20140187513A1, “METHOD OF IMPROVING SKILLS WITH A COMPOSITION COMPRISING NON-DIGESTIBLE SACCHARIDE” (priority 2007, published 2014).

Settings: oral, autistic children, pilot study

CN[C@H](CC(C)C)C(=O)N[C@H]1C(=O)N[C@@H](CC(N)=O)C(=O)N[C@H]2C(=O)N[C@H]3C(=O)N[C@H](C(=O)N[C@H](C(=O)O)c4cc(O)cc(O)c4-c4cc3ccc4O)[C@H](O)c3ccc(c(Cl)c3)Oc3cc2cc(c3O[C@@H]2O[C@H](CO)[C@@H](O)[C@H](O)[C@H]2O[C@H]2C[C@](C)(N)[C@H](O)[C@H](C)O2)Oc2ccc(cc2Cl)[C@H]1O [vancomycin]
cognitive effect following vancomycin treatment: significant cognitive improvement
